Results as given in paper PMC11279160 (Microorganisms, 2024).
Like-named read-outs stand apart in the source and are kept apart here.

Assays:
[1] = system: L. (L.) amazonensis promastigotes; assay: Growth inhibition of promastigotes, MTT assay, 72 h; assay type: cell-based; conditions: Leishmania amazonensis; for IC50: read-out: Promastigotes IC50
Experimental: (§1) The species Leishmania (Leishmania) amazonensis (IFLA/BR/67/PH8) was maintained in promastigote form at a temperature of 26 °C in a biochemical oxygen demand incubator (BOD) (Eletrolab EL202, São Paulo, Brazil) and in complete Schneider medium (20% heat-inactivated fetal bovine serum (FBS), and 1% antibiotic solution). The L. (L.) amazonensis axenic amastigote forms were obtained through the differentiation of infective promastigote forms using Schneider medium supplemented with 5% FBS, pH 4.6, at a temperature of 32 °C. Parasite growth was observed daily and, if necessary, weekly repeats were performed.
(§2) Promastigote forms or axenic amastigotes in an exponential growth phase were cultured in 96-well plates with complete Schneider’s medium, at 1 × 10^6 parasites/mL. […] The plates were incubated for 72 h under a BOD at 26 °C to prepare promastigotes and 32 °C to prepare amastigotes. When ready, 10 μL of MTT (5 mg/mL) was added to all wells (with the exception of the blank) with an incubation for 4 h. Subsequently, 50 μL of SDS solution (dodecyl sodium sulfate) at 10% was added to dissolve the formazan crystals, and a spectrophotometric reading was then performed (Biotek model ELx800, Winooski, VT, USA) at 540 nm. Schneider medium with 0.5% DMSO was used, considering a 0% growth inhibition for the negative control.

[2] = system: L. (L.) amazonensis axenic amastigotes; assay: Growth inhibition of axenic amastigotes, MTT assay, 72 h; assay type: cell-based, Leishmania (Leishmania) amazonensis; conditions: for EC50: read-out: Axenic Amastigotes EC50
Experimental: as §1, §2

[3] = system: L. (L.) amazonensis intracellular amastigotes; assay: Activity against intramacrophageal amastigotes in infected J774A.1 macrophages; assay type: cell-based, Leishmania (Leishmania) amazonensis; conditions: for EC50: read-out: Intracellular Amastigotes EC50; for reduction in macrophage infection rate / reduction in the number of internalized amastigotes per infected macrophage: compared to negative control
Experimental: Macrophages were added to 24-well culture plates containing complete RPMI medium and sterile 13 mm coverslips, 1 × 10^5 J774A.1, and for cell adhesion incubated at 37 °C and 5% CO2 for 3 h. The medium was then removed, and three washes with PBS at 37 °C to remove non-adherent cells were performed. New medium, together with metacyclic promastigote forms in a proportion of 10 promastigotes/macrophage, was then added to the wells for infection and then incubated for another 4 h at 37 °C and 5% of CO2. The medium was then removed again and the plate washed with PBS to remove non-internalized […]. […] Subsequently, the coverslips were removed, stained with a quick panoptic kit, and mounted with Entelan®. In each coverslip, 300 macrophages were counted, together with the number of internalized amastigotes through optical microscopy at 1000× magnification. For the negative control, complete RPMI medium with 0.5% DMSO was used. At the end of the macrophage infection assay, the supernatant was stored at −20 °C for the subsequent evaluation of NO production.

in vitro [4] = conditions: mouse
Experimental: (§3) Murine J774A.1 lineage macrophages and VERO CCL 81 cells were grown in 750 cm^2 cell culture flasks (Corning Glass Workers, New York, NY, USA) containing complete RPMI medium (10% SFB and 1% stabilized anti-mycotic–antibiotic solution), incubated at 37 °C and 5% CO2. The cells were observed on all days and replicates were always conducted after the cells reached confluence, around 72 to 96 h [22].
(§4) The cytotoxicity assay was performed in 96-well plates using MTT for cell viability observation. Plates containing 100 μL of complete RPMI medium and approximately 5 × 10^5 J774A.1 macrophages or VERO CCL 81 cells were incubated for 4 h at 37 °C and 5% CO2 for cell adhesion to occur. […] As a positive control, the reference drugs meglumine antimoniate (200–40,000 µM) and amphotericin B (0.031–2 µM) were used, and as a negative control, complete RPMI 1640 medium at 0.5% DMSO was used (considering 100% cell viability). After 72 h of incubation at 37 °C and 5% CO2, 10 μL of MTT was added and incubated for another 4 h at room temperature. The medium was then removed, and 100 μL of DMSO was added to dilute the formazan crystals created by the MTT [23]. Finally, the plate was taken to be read at 540 nm in a (Biotek model Elx800) spectrophotometer.

in vitro [5] = conditions: African green monkey
Experimental: as §3, §4

[6] = system: promastigotes of L. (L.) amazonensis; conditions: cited from earlier work
[7] = system: amastigotes of L. (L.) amazonensis; conditions: cited from earlier work
[8] = system: J774A.1 macrophages infected with L. (L.) amazonensis; assay: ROS production in infected macrophages, H2DCFDA test; assay type: cell-based, murine; conditions: 3.12 μM, 6.25 μM and 12.5 μM, 72 h, compared to negative control
Experimental: Macrophages were incubated in 96-well plates with complete RPMI medium for 3 h at 37 °C, and 5% CO2 for adherence. These were then infected with L. […] Then 10 μL of H2DCFDA was added for a final concentration of 20 μM and incubated for 30 min in the dark at 37 °C. A spectrofluorometer (FLx800) was used to read the fluorescence intensity, using 485 nm of excitation and 528 nm of emission. Antimycin A (5 μM) was used as the positive control for ROS generation.

[9] = system: J774A.1 macrophages infected with L. (L.) amazonensis; assay: Nitric oxide production by infected macrophages, Griess reagent; assay type: cell-based, murine; conditions: 3.12 μM, 6.25 μM and 12.5 μM, 72 h, compared to negative control
Experimental: The measurement of NO production (using macrophage infection supernatant) was performed by the production of nitrite with Griess reagent. About 100 µL of infection supernatant was added to a 96-well plate. In parallel, serial concentrations of NaNO2 in RPMI medium were also added to the plate for interpolation of the standard curve. Griess reagent (1% Sulfanilamide in 10% (v/v) H3PO4 in Milli-Q® water and in equal parts to 0.1% naphthylenediamine in Milli-Q® water Q®) was then added and incubated for 10 min at room temperature. At the end of the incubation, a reading was conducted on a plate reader at 540 nm. The positive control was performed with Escherichia coli lipopolysaccharide at 2 μg/mL.

J774A.1 macrophages [10] = assay: Lysosomal activity, neutral red retention; assay type: cell-based, murine; conditions: 12.5 μM, 6.25 μM and 3.12 μM, 72 h, relative to negative control
Experimental: After this, 10 μL of PBS and 2% red neutral (VN) were added, with incubation in an incubator for another 30 min. Soon afterwards, the supernatant was aspirated and the plates washed 3× with PBS to remove excess VN. […] Finally, the plates were placed under agitation in a Kline apparatus for 30 min, and then read in a spectrophotometer at 540 nm.

J774A.1 macrophages [11] = assay: Phagocytic capacity, neutral-red-stained zymosan; assay type: cell-based, murine; conditions: 12.5 μM, 6.25 μM and 3.12 μM, 72 h, compared to negative control
Experimental: At 72 h, 10 μL of VN-stained zymosan was added and then incubated for 30 min. […] To remove what was not phagocytized by the macrophages, the plate was washed with PBS. The plate extraction solution was added, and then solubilization was performed in a Kline shaker. The board was taken for reading on a spectrophotometer at 540 nm.

[12] = system: L. (L.) amazonensis-infected J774A.1 macrophages; assay: Cytokine production in infected macrophages, ELISA; assay type: cell-based, murine; conditions: 72 h
Experimental: According to Rodrigues et al., 2021 [27], to carry out cytokine evaluation, the supernatant saved after the J774A.1 macrophage infection assay was used to evaluate cytokine production. Analysis kits (optEIATM ELISA, Pharmingen, San Diego, CA, USA) were used following the manufacturer’s protocol to examine the release of cytokines (TNF-α, IL-1α, IL-6, IL-10, and IL-12), and standard recombinant cytokines were used to produce a curve. The reading was performed in a spectrophotometer at 450 nm.

[13] = Cytotoxicity on VERO cells, MTT assay, 72 h; conditions: African green monkey, VERO CCL 81 cells
Experimental: as §3, §4

[14] = Cytotoxicity on macrophages, MTT assay, 72 h; conditions: mouse
Experimental: as §3, §4

[15] = read-out: growth inhibition of promastigote forms
[16] = Leishmania amazonensis, read-out: growth inhibition of axenic amastigote forms

**Q.** Which results are given for `C[C@@H]1[C@H](O)[C@@H](C)/C=C/C=C/C=C/C=C/C=C/C=C/C=C/[C@H](O[C@@H]2O[C@H](C)[C@@H](O)[C@H](N)[C@@H]2O)C[C@@H]2O[C@](O)(C[C@@H](O)C[C@@H](O)[C@H](O)CC[C@@H](O)C[C@@H](O)CC(=O)O[C@H]1C)C[C@H](O)[C@H]2C(=O)O` [Amphotericin B, reference compound]?
**A.** IC50 ([1]; 26 °C, MTT): 0.36 ± 0.03 µM; EC50 ([2]; Leishmania amazonensis, 32 °C, MTT): 0.23 ± 0.01 µM; EC50 ([3]; Leishmania amazonensis, J774.A1, infected J774A.1 macrophages, 72 h): 0.29 ± 0.04 µM; CC50 at 72 h (in vitro [4]): 0.38 ± 0.06 µM; CC50 at 72 h (in vitro [5]): 0.32 ± 0.08 µM

**Q.** What does the source list for `C=C(C)[C@@H]1CC[C@]2(C)CC[C@]3(C)[C@H](CC[C@@H]4[C@@]5(C)CC[C@H](O)C(C)(C)[C@@H]5CC[C@]43C)[C@@H]12` [Lupeol]?
**A.** IC50 for promastigotes ([6]; L. (L.) amazonensis promastigotes ref 38): 39.06 µg/mL; IC50 for amastigote forms ([7]; L. (L.) amazonensis amastigote forms ref 38): 44.1 µg/mL

**Q.** Which results are given for `CC1(C)C=C2[C@H]3CC[C@@H]4[C@@]5(C)CC[C@H](O)C(C)(C)[C@@H]5CC[C@@]4(C)[C@]3(C)CC[C@@]2(C(=O)O)CC1` [Morolic acid, morolic acid]?
**A.** IC50 [1]: 1.13 ± 0.04 µM; inhibition at 1.56 µM [1, 15]: 57.6%; inhibition at 3.12 µM [1, 15]: 57.9%; inhibition at 6.25 µM [1, 15]: 83.3%; inhibition at 12.5 µM [1, 15]: 100%; inhibition at 25 µM [1, 15]: 100%; inhibition at 50 µM [1, 15]: 100%; inhibition at 100 µM [1, 15]: 100%; EC50 ([2]; Leishmania amazonensis): 2.74 ± 0.03 µM; inhibition at 1.56 µM [2, 16]: 34.1%; inhibition at 3.12 µM [2, 16]: 68.6%; inhibition at 6.25 µM [2, 16]: 76.4%; inhibition at 12.5 µM [2, 16]: 100%; inhibition at 25 µM [2, 16]: 100%; inhibition at 50 µM [2, 16]: 100%; inhibition at 100 µM [2, 16]: 100%; reduction in macrophage infection rate ([3]; 1.56 μM, 72 h): 34%; reduction in the number of internalized amastigotes per infected macrophage ([3]; 1.56 μM, 72 h): 59.1%; reduction in macrophage infection rate ([3]; 3.12 μM, 72 h): 77.5%; reduction in the number of internalized amastigotes per infected macrophage ([3]; 3.12 μM, 72 h): 71.6%; reduction in macrophage infection rate ([3]; 6.25 μM, 72 h): 93%; reduction in the number of internalized amastigotes per infected macrophage ([3]; 6.25 μM, 72 h): 86.8%; reduction in macrophage infection rate ([3]; 12.5 μM, 72 h): 100%; reduction in the number of internalized amastigotes per infected macrophage ([3]; 12.5 μM, 72 h): 100%; EC50 ([3]; Leishmania amazonensis, J774.A1, 72 h): 2.56 ± 0.08 µM; levels of ROS produced in infected macrophages [8]: increase; levels of NO produced in infected macrophages [9]: increase; lysosomal activity (J774A.1 macrophages [10]): increased; phagocytic capacity for zymosan (J774A.1 macrophages [11]): significant increase; IL-1α levels [12]: no effect; IL-12 levels [12]: no effect; production of TNF-α ([12]; at the higher concentration): significant increase; IL-6 levels ([12]; at the highest concentrations): significant reduction; IL-10 levels ([12]; at the highest concentrations): significant reduction; CC50 at 72 h [13]: 82.9 ± 1.84 µM; viability at 72 h, 1.56 µM [13]: 100%; viability at 72 h, 3.12 µM [13]: 100%; viability at 72 h, 6.25 µM [13]: 93.2%; viability at 72 h, 12.5 µM [13]: 88.8%; viability at 72 h, 25 µM [13]: 79.4%; viability at 72 h, 50 µM [13]: 71.2%; viability at 72 h, 100 µM [13]: 38.8%; viability at 72 h, 200 µM [13]: 24.3%; CC50 at 72 h [14]: 68.6 ± 2.46 µM; viability at 72 h, 1.56 µM ([14]; J774A.1 macrophages): 100%; viability at 72 h, 3.12 µM ([14]; J774A.1 macrophages): 100%; viability at 72 h, 6.25 µM ([14]; J774A.1 macrophages): 100%; viability at 72 h, 12.5 µM ([14]; J774A.1 macrophages): 100%; viability at 72 h, 25 µM ([14]; J774A.1 macrophages): 100%; viability at 72 h, 50 µM ([14]; J774A.1 macrophages): 65%; viability at 72 h, 100 µM ([14]; J774A.1 macrophages): 15%; viability at 72 h, 200 µM ([14]; J774A.1 macrophages): 0%

**Q.** For `C[C@H]1[C@H](C)CC[C@]2(C(=O)O)CC[C@]3(C)C(=CC[C@@H]4[C@@]5(C)CC[C@H](O)C(C)(C)[C@@H]5CC[C@]43C)[C@H]12` [ursolic acid], which IC50 for promastigotes ([6]; L. (L.) amazonensis promastigotes ref 37) is on record?
**A.** Its IC50 for promastigotes is 14.1 µg/mL.

**Q.** What about the “IC50 for axenic amastigotes” value ([7]; L. (L.) amazonensis axenic amastigotes ref 37) of the same compound?
**A.** The value was 2.24 µg/mL.

**Q.** With “Meglumine antimoniate [reference compound]” as the compound, how does the EC50 ([2]; 32 °C, MTT) read?
**A.** Its EC50 is 1020 ± 25.7 µM.

**Q.** And the EC50 ([3]; infected J774A.1 macrophages, 72 h)?
**A.** The EC50 was 541 ± 13.5 µM.
